Test results from ChEMBL document CHEMBL6153161, “Exploring Arylidene-Indolinone Ligands of Autophagy Proteins LC3B and GABARAP” (ACS Med Chem Lett, 2025).

How the values were obtained:
[1] = Inhibition of GABARAP (unknown origin) expressed in Escherichia coli BL21(DE3) incubated for 45 mins by AlphaScreen assay; design: species or system Homo sapiens
[2] = target: T1, Microtubule-associated protein 1 light chain 3 beta (Homo sapiens, UniProt Q9GZQ8); experiment: Inhibition of LC3B (unknown origin) expressed in Escherichia coli BL21(DE3) incubated for 45 mins by AlphaScreen assay
[3] = target: T1, Microtubule-associated protein 1 light chain 3 beta; experiment: Binding affinity against recombinant LC3B (unknown origin) assessed as dissociation constant by small molecule microarray with a scanning oblique-incidence reflectivity difference microscopic analysis
[4] = target: T1, Microtubule-associated protein 1 light chain 3 beta; experiment: Binding affinity against recombinant LC3B (unknown origin) assessed as dissociation constant by surface plasmon resonance assay
[5] = target: T1, Microtubule-associated protein 1 light chain 3 beta; experiment: Binding affinity against recombinant LC3B (unknown origin) assessed as dissociation constant by 2D-NMR titration assay
Bacteria = experiment: Inhibition of beta-lactamase (unknown origin) at up to 25 uM incubated for 15 mins by beta-lactamase assay
[6] = Binding affinity to GABARAP (unknown origin) assessed as dissociation constant by biolayer interferometry analysis; design: species or system Homo sapiens

IC50 [1] [µM]	IC50 [2] [µM]	Structure (SMILES)	further results
175	176	O=C1Nc2ccccc2/C1=C\c1cc(Br)c(O)c(Br)c1	–
5.7	–	COC(=O)c1ccc2c(c1)NC(=O)/C2=C/c1cc(Br)c(O)c(Br)c1	–
13	–	O=C1Nc2ccc(Br)cc2/C1=C\c1cc(Br)c(O)c(Br)c1	–
> 1	> 1	O=C1Nc2ccc(I)cc2/C1=C\c1ccc(-c2ccc(C(F)(F)F)cc2)cc1	–
> 12.5	> 12.5	O=C1Nc2ccc(I)cc2/C1=C\c1cccc2nccn12	–
> 25	–	O=C1Nc2cc(Cl)c(Cl)cc2/C1=C\c1cc(Br)c(O)c(Br)c1	–
> 25	–	O=C1Nc2ccc(I)cc2/C1=C\c1ccccc1	–
> 1.8	> 1.8	O=C1Nc2ccc(I)cc2/C1=C\c1ccc[nH]1	–
24	–	Cc1ccc2c(c1)NC(=O)/C2=C/c1cc(Br)c(O)c(Br)c1	–
> 14	–	Cc1ncsc1/C=C1/C(=O)Nc2ccc(I)cc21	–
75	119	O=C1Nc2ccc(I)cc2/C1=C\c1ccc(C(=O)O)cc1	–
> 6.4	–	O=C1Nc2ccc(I)cc2/C1=C\c1cc(Br)cc(Br)c1	–
15	–	O=C1Nc2ccc(I)cc2/C1=C\c1cc(Br)cc(Br)c1O	–
12	–	O=C1Nc2cc(I)ccc2/C1=C\c1cc(Br)c(O)c(Br)c1	–
> 11	> 11	COc1ccc(/C=C2/C(=O)Nc3ccc(I)cc32)cc1	–
> 10	> 10	O=C1Nc2ccc(I)cc2/C1=C\c1ccc(O)cc1	–
> 3.5	> 3.5	O=C1Nc2ccc(I)cc2/C1=C\c1cncs1	–
9.1	4.4	O=C1Nc2ccc(I)cc2/C1=C\c1cc(Br)c(O)c(Br)c1	Kd [3]: 0.468 µM; Kd [4]: 8.9 µM; Kd [5]: > 200 µM; inhibition (Bacteria): No effect
0.055	–	CC(C)C[C@H](NC(=O)[C@H](Cc1c[nH]cn1)NC(=O)[C@H](CCC(=O)O)NC(=O)[C@H](Cc1c[nH]c2ccccc12)NC(=O)[C@@H](NC(=O)[C@H](Cc1ccc(O)cc1)NC(=O)[C@@H](NC(=O)[C@H](C)NC(=O)[C@H](CC(=O)O)NC(=O)CCCC[C@@H]1SC[C@@H]2NC(=O)N[C@@H]21)[C@@H](C)O)[C@@H](C)O)C(=O)N[C@@H](C)C(=O)N[C@@H](Cc1c[nH]c2ccccc12)C(=O)N1CCC[C@H]1C(=O)O	Kd [6]: 0.055 µM

Structure (SMILES)	IC50 [1] [µM]	IC50 [2] [µM]	further results
O=C1Nc2ccc(I)cc2/C1=C\c1cnc[nH]1	> 70	–	–
